Results: patent publication EP4610269A1, “UROKINASE PLASMINOGEN ACTIVATOR SURFACE RECEPTOR (UPAR) LIGANDS FOR DIAGNOSTIC OR THERAPEUTIC USE” (3B Pharmaceuticals GmbH, priority 2024, dated 2025)
Read-outs that look alike come from different tables or passages of the source. *1 amine or outer side, *2 acyl side, *3 side chain or, on linkers, in order; H or OH if unused. Where a SMILES comes first, the peptide text is derived from it. Bridges are numbered along the chain shown (N, C = ends). Side-chain parts run from the residue outwards. [ ]: non-standard residue; d: D form. The star is where a group is joined. X12 = N=c1ccc2c(-c3ccc(C(=O)NCCCOCCOCCOCCCN*)cc3C(=O)O)c3ccc(N)c(S(=O)(=O)O)c3oc-2c1S(=O)(=O)O; DOTA(Lu) = O=C1CN2CCN3CCN(CC(=O)*)CCN(CC2)CC(=O)[O][Lu]([O]1)[O]C(=O)C3; X11 = O=C(CCCC[C@@H]1SC[C@@H]2NC(=O)N[C@@H]21)NCCCOCCOCCOCCCN*; DOTA = O=C(O)CN1CCN(CC(=O)O)CCN(CC(=O)*)CCN(CC(=O)O)CC1; Pro(cis-4-F) = O=C(O)[C@@H]1C[C@H](F)CN1; Dopa = N[C@@H](Cc1ccc(O)c(O)c1)C(=O)O; Cyclopentanecarbonyl = O=C(C1CCCC1)*; Hyp = O=C(O)[C@@H]1C[C@@H](O)CN1; X10 = CC(C)C[C@@H](C(=O)*)N(C)C; Cit = NC(=O)NCCC[C@H](N)C(=O)O; Butoxycarbonyl = CCCCOC(=O)*; NMeK = CN[C@@H](CCCCN)C(=O)O; Phg = N[C@H](C(=O)O)c1ccccc1; Suc = O=C(CCC(=O)[*:2])[*:1]; dNMeA = CN[C@H](C)C(=O)O; Nva = CCC[C@H](N)C(=O)O; Pentanoyl = CCCCC(=O)*; Ahx = NCCCCCC(=O)O; Sar = CNCC(=O)O

Assays:
[1] = molecular target: T1, uPAR-expressing HEC-265 human endometrial adenocarcinoma cells (Homo sapiens, UniProt Q03405); assay: Competitive FACS binding assay; details: pIC50 category of FACS binding
T1 construct: Cell surface uPAR-expressing HEC-265 human endometrial adenocarcinoma cells; host or cells: HEC-265
T1 sequence (Q03405 23-335): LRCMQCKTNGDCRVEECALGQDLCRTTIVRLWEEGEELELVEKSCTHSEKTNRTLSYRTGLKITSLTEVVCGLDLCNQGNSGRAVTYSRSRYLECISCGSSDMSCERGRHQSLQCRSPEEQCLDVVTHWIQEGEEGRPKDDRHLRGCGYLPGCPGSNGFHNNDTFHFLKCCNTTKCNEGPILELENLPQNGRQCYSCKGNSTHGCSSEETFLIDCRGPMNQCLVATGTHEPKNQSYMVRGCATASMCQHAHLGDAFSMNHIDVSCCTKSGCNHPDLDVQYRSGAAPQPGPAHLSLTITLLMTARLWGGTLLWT
Description: In order to determine binding of compounds according to the present invention to uPAR-expressing cells, a competitive FACS binding assay was established.
Cell surface uPAR-expressing HEC-265 human endometrial adenocarcinoma cells (Japanese Collection of Research Bioresources, #JCRB1142) were cultured in MEM Eagle with stable glutamine (Pan Biotech, #P04-09500) including 15% fetal bovine serum (Pan Biotech, #P30-3306) and 100 U/ml penicillin and 100 µg/mL streptomycin (Pan Biotech, #P06-07100). Cells were detached with Cell Dissociation Buffer (Thermo Scientific, #13151014) and washed in FACS buffer (PBS (Pan Biotech, #P04-36500) including 1% BSA (SeraCare, #AP-4510-80). Cells were diluted in FACS buffer to a final concentration of 500.000 cells per ml and 200 µl of the cell suspension are transferred to a u-shaped non-binding 96-well plate (Greiner Bio-One, #650901).
For IC50 determination, cells were incubated with 10 nM Bio--Ttds--Ttds--Ttds--Ttds-D-Cha-FsrYLWS-NH2) in the presence of increasing concentrations of non-labeled test compounds at 4°C for 1 hour. Cells were washed twice in FACS buffer. An additional incubation step with 1 µg/mL APC-Streptavidin (Miltenyi; #130-106-791) in 50 µL FACS buffer for 30 minutes on ice was performed followed by two washes with FACS buffer. Cells were resuspended in 200 µl FACS buffer and analyzed in an Attune NxT flow cytometer. Median fluorescence intensities (APC channel) were calculated by Attune NxT software and plotted against peptide concentrations. Four parameter logistic (4PL) curve fitting and pIC50 calculations were performed using ActivityBase software.

human uPAR (uPAR-Fc) = molecular target: T2, human uPAR (uPAR-Fc) (Homo sapiens, UniProt Q03405); assay: Surface plasmon resonance (SPR) assay, single cycle kinetics; format: binding
T2 construct: comprising amino acids Leu23-Arg303 according to UniProt entry Q03405.1; purchased R&D Systems 10378-UK-100
T2 sequence (Q03405 23-303): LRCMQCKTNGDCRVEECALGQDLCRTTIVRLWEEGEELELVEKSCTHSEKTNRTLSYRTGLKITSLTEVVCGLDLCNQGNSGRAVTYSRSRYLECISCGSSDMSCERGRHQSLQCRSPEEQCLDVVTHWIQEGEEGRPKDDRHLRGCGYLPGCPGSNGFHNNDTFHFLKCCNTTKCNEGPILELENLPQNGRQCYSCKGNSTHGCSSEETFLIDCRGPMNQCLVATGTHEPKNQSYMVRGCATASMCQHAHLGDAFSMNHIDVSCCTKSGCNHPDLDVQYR
Description: Surface plasmon resonance (SPR) is an optical technique used to measure molecular interactions in real time. SPR occur when plane-polarized light hits a metal film under total internal reflection conditions. SPR signal is directly dependent on the refractive index of the medium on the sensor chip. In an SPR experiment, one molecule (i.e. uPAR) is immobilized on a sensor chip and binding to a second molecule (i.e. test compounds) is measured under flow. The binding of the compound on the surface changes the refractive index. In responses the reflection angle changes as compounds bind and dissociate on the immobilized protein on the surface. This response is measured in resonance units (RU). The RUs are proportional to the number of molecules bound to the surface. […] Kinetic binding constants and equilibrium binding constants can be derived from the sensorgrams.
Surface plasmon resonance (SPR) studies were performed using a Biacore™ T200 or S200 SPR system (Cytiva, formerly GE Life Sciences) to assess binding of compounds to recombinant uPAR protein.
In this example recombinant protein comprising the extracellular domains of human uPAR (uPAR-Fc, R&D Systems, CAT 10378-UK-100, comprising amino acids Leu23-Arg303 according to UniProt entry Q03405.1 and Fc region of human IgG1 at the C-terminus) was immobilized on a Protein A-Chip (Cytiva, CAT 29127555) according to the supplier's instructions. uPAR-Fc was diluted in Running Buffer (10 mM HEPES, 150 mM NaCl, 50 µM EDTA, 0.1% DMSO, 0.05% Tween-20, pH 7.4) to a final concentration of 100 nM and then flushed over the Protein A-Chip to immobilized ~2000 RUs.
Stock solutions of test compounds were prepared by dissolving each compound in DMSO. DMSO stock solution were diluted 1: 1000 in Running Buffer without DMSO. Further sequential dilutions were made with Running Buffer containing 0.1% DMSO. SPR binding analyses were performed in Single Cycle Kinetic (SCK) mode at 25°C. Flow cell without immobilized uPAR-Fc served as reference flow cell. The chip was regenerated with 10 mM Glycine, pH 1,5 to remove the uPAR-Fc from the chip surface after each SCK run. After every three SCK measurements, a blank run with Running Buffer instead of test compound was included to correct for baseline drifts (double reference substraction method). Table 11: SPR protocol steps for SCK with uPAR-Fc immobilized on a Protein A-Chip.
For each test compound, SPR raw data sensorgrams were recorded using the Biacore™ T200 or S200 control software. Sensorgrams were processed and analyzed with the Biacore™ Insight Evaluation software. […] The reference subtracted sensorgram for each test compound was further corrected for baseline drift by subtracting the sensorgram of a reference subtracted blank run (Running Buffer only). The dissociation constant (KD) was calculated from the double reference subtracted sensorgrams using the 1:1 Langmuir binding model. The pKD value (negative decadic logarithm of dissociation constant) was calculated using Microsoft Excel.

[2] = pKD category for uPAR SPR activity assay, uPAR-Fc on Protein A-Chip, 25°C, read-out: pKD CAT (converted)
[3] = pKD category for uPAR SPR activity assay, uPAR-Fc on Protein A-Chip, single cycle kinetics, 25°C, read-out: pKD CAT (converted)

CC[C@H](C)[C@@H]1NC(=O)[C@@H](C)NC(=O)[C@@H]2CCCN2C(=O)[C@H](Cc2ccccc2)NC(=O)[C@H](Cc2ccc(O)cc2)NC(=O)[C@H](CCC(N)=O)NC(=O)[C@H](CCCNC(N)=O)NC(=O)[C@@H](NC(=O)C2CCCC2)CSSC[C@@H](C(N)=O)NC(=O)[C@H](CC(C)C)NC1=O [UPAR-208, Cp-[Cys-Cit-Gln-Tyr-Phe-Pro-ala-Ile-Leu-Cys]-NH2] (Cyclopentanecarbonyl-C[Cit]QYFP[dA]ILC-NH2; disulfide 1-10)
IC50 [1]: ≤ 10 nM | Kd (human uPAR (uPAR-Fc); [2]): < 1.58 nM

CCCCC(=O)N[C@H]1CSSC[C@@H](C(N)=O)NC(=O)[C@H](CC(C)C)NC(=O)[C@H]([C@@H](C)CC)NC(=O)[C@@H]2CCCN2C(=O)[C@@H]2CCCN2C(=O)[C@H](Cc2ccccc2)NC(=O)[C@H](Cc2ccc(O)cc2)NC(=O)[C@H](CCCCNC(=O)CN2CCN(CC(=O)O)CCN(CC(=O)O)CCN(CC(=O)O)CC2)NC(=O)[C@H](CCCNC(N)=O)NC1=O [UPAR-396, Pent-[Cys-Cit-Lys(DOTA)-Tyr-Phe-Pro-Pro-Ile-Leu-Cys]-NH2] (Pentanoyl-C[Cit]K(DOTA)YFPPILC-NH2; disulfide 1-10)
IC50 [1]: ≤ 10 nM | Kd (human uPAR (uPAR-Fc); [3]): < 1.58 nM

CCCCC(=O)N[C@H]1CSSC[C@@H](C(N)=O)NC(=O)[C@H](CCC)NC(=O)[C@H]([C@@H](C)CC)NC(=O)[C@@H]2CCCN2C(=O)[C@@H]2CCCN2C(=O)[C@H](Cc2ccccc2)NC(=O)[C@H](Cc2ccc(O)cc2)NC(=O)[C@H](CCCCNC(=O)CN2CCN(CC(=O)O)CCN(CC(=O)O)CCN(CC(=O)O)CC2)NC(=O)[C@H](CCCNC(N)=O)NC1=O [UPAR-473, Pent-[Cys-Cit-Lys(DOTA)-Tyr-Phe-Pro-Pro-Ile-Nva-Cys]-NH2] (Pentanoyl-C[Cit]K(DOTA)YFPPI[Nva]C-NH2; disulfide 1-10)
IC50 [1]: ≤ 10 nM | Kd (human uPAR (uPAR-Fc); [3]): < 1.58 nM

CCCCC(=O)N[C@H]1CSSC[C@@H](C(N)=O)NC(=O)[C@H](CCC)NC(=O)[C@H]([C@@H](C)CC)NC(=O)[C@@H](C)N(C)C(=O)[C@@H]2CCCN2C(=O)[C@H](Cc2ccccc2)NC(=O)[C@H](Cc2ccc(O)cc2)NC(=O)[C@H](CCCCNC(=O)CN2CCN(CC(=O)O)CCN(CC(=O)O)CCN(CC(=O)O)CC2)NC(=O)[C@H](CCCNC(N)=O)NC1=O [UPAR-384, Pent-[Cys-Cit-Lys(DOTA)-Tyr-Phe-Pro-nma-Ile-Nva-Cys]-NH2] (Pentanoyl-C[Cit]K(DOTA)YFP[dNMeA]I[Nva]C-NH2; disulfide 1-10)
IC50 [1]: ≤ 10 nM | Kd (human uPAR (uPAR-Fc); [3]): < 1.58 nM

CCC[C@@H]1NC(=O)[C@H]([C@@H](C)CC)NC(=O)[C@@H]2C[C@@H](O)CN2C(=O)[C@@H]2CCCN2C(=O)[C@H](Cc2ccccc2)NC(=O)[C@H](Cc2ccc(O)cc2)NC(=O)[C@H](CCC(N)=O)NC(=O)[C@H](CCCNC(=N)N)NC(=O)[C@@H](NC(=O)[C@H](Cc2ccccc2)NC(C)=O)CSSC[C@@H](C(N)=O)NC1=O [UPAR-488, Ac-Phe-[Cys-Arg-Gln-Tyr-Phe-Pro-Hyp-Ile-Nva-Cys]-NH2] (Ac-FCRQYFP[Hyp]I[Nva]C-NH2; disulfide 2-11)
Kd (human uPAR (uPAR-Fc); [3]): < 1.58 nM

CCCCOC(=O)N[C@H]1CSSC[C@@H](C(N)=O)NC(=O)[C@H](CCC)NC(=O)[C@H]([C@@H](C)CC)NC(=O)[C@@H]2C[C@@H](O)CN2C(=O)[C@@H]2C[C@H](F)CN2C(=O)[C@H](Cc2ccccc2)NC(=O)[C@H](Cc2ccc(O)c(O)c2)NC(=O)[C@H](CCCCNC(=O)CCC(=O)NCCCOCCOCCOCCCNC(=O)c2ccc(-c3c4ccc(=N)c(S(=O)(=O)O)c-4oc4c(S(=O)(=O)O)c(N)ccc34)c(C(=O)O)c2)NC(=O)[C@H]([C@@H](C)O)NC1=O [UPAR-479, Butoc-[Cys-Thr-Lys(AF488-Ttds)-Dopa-Phe-4Cfp-Hyp-Ile-Nva-Cys]-NH2] (Butoxycarbonyl-CTK([Suc-X12])[Dopa]F[Pro(cis-4-F)][Hyp]I[Nva]C-NH2; disulfide 1-10)
Kd (human uPAR (uPAR-Fc)): < 1.58 nM

Pent-[Cys-Cit-Lys(LuDOTA)-Tyr-Phe-Pro-Nmg-Ile-Nva-Cys]-NH2 (Pentanoyl-C[Cit]K(DOTA(Lu))YFP[Sar]I[Nva]C-NH2; disulfide 1-10; not fully specified; also: Lu(III) complexed by DOTA) [UPAR-348]
pIC50 CAT [1]: A (pIC50 values ≥8.0)

LuDOTA-Ahx-Leu-[Cys-Arg-Gln-Tyr-Phe-Pro-ala-Ile-Leu-Cys]-NH2 ({DOTA(Lu)}-[Ahx]LCRQYFP[dA]ILC-NH2; disulfide 3-12; not fully specified; printed as LuDOTA-Ahx-Leu-[Cys-Arg-Gln-Tyr-Phe-Pro-ala-Ile-Leu-Cys]-NH₂; also: Lu(III) complexed by DOTA) [UPAR-170]
pIC50 CAT [1]: A (pIC50 values ≥8.0)

CCC[C@@H]1NC(=O)[C@H]([C@@H](C)CC)NC(=O)[C@@H]2C[C@@H](O)CN2C(=O)[C@@H]2CCCN2C(=O)[C@H](Cc2ccccc2)NC(=O)[C@H](Cc2ccc(O)cc2)NC(=O)[C@H](CCC(N)=O)NC(=O)[C@H](CCCNC(=N)N)NC(=O)[C@@H](NC(=O)[C@H](CC(C)C)N(C)C)CSSC[C@@H](C(N)=O)NC1=O [UPAR-487, Me-Nml-[Cys-Arg-Gln-Tyr-Phe-Pro-Hyp-Ile-Nva-Cys]-NH2] (X10-CRQYFP[Hyp]I[Nva]C-NH2; disulfide 1-10)
Kd (human uPAR (uPAR-Fc); [3]): 1.58 to 10 nM

CCCCC(=O)N[C@H]1CSSC[C@@H](C(N)=O)NC(=O)[C@H](CCC)NC(=O)[C@H]([C@@H](C)CC)NC(=O)[C@H](CCCCN)N(C)C(=O)[C@@H]2CCCN2C(=O)[C@H](Cc2ccccc2)NC(=O)[C@H](Cc2ccc(O)cc2)NC(=O)[C@H](CCCCNC(=O)CCC(=O)NCCCOCCOCCOCCCNC(=O)CCCC[C@@H]2SC[C@@H]3NC(=O)N[C@@H]32)NC(=O)[C@H](CCCNC(N)=O)NC1=O [UPAR-317, Pent-[Cys-Cit-Lys(Bio-Ttds)-Tyr-Phe-Pro-Nmk-Ile-Nva-Cys]-NH2] (Pentanoyl-C[Cit]K([Suc-X11])YFP[NMeK]I[Nva]C-NH2; disulfide 1-10)
Kd (human uPAR (uPAR-Fc); [2]): 10 to 100 nM

CCC[C@@H]1NC(=O)[C@H]([C@@H](C)CC)NC(=O)[C@@H]2C[C@@H](O)CN2C(=O)[C@@H]2CCCN2C(=O)[C@H](Cc2ccccc2)NC(=O)[C@H](Cc2ccc(O)cc2)NC(=O)[C@H](CCC(N)=O)NC(=O)[C@H](CCCNC(=N)N)NC(=O)[C@@H](NC(=O)[C@@H](NC(C)=O)c2ccccc2)CSSC[C@@H](C(N)=O)NC1=O [UPAR-486, Ac-Phg-[Cys-Arg-Gln-Tyr-Phe-Pro-Hyp-Ile-Nva-Cys]-NH2] (Ac-[Phg]CRQYFP[Hyp]I[Nva]C-NH2; disulfide 2-11)
Kd (human uPAR (uPAR-Fc); [3]): < 1.58 nM
